According to patent US20260232662A1, “MIR-124 INDUCER, AND PREPARATION METHOD THEREFOR AND USE THEREOF” (NANJING SYNNOCARE PHARMACEUTICAL TECHNOLOGY CO., LTD., priority 2023, published 2026):

Test system: DSS-induced IBD in mice
Assay: Preventive and therapeutic effects on DSS-induced inflammatory bowel disease (IBD) in mice
Type: in vivo
Conditions: 40 mg/kg p.o. q.d.
Description: This study evaluated the preventive and therapeutic effects of the compounds of the present invention on dextran sulfate sodium (DSS)-induced IBD in mice. The experiment utilized female C57BL/6 mice (purchased from Beijing Vital River Laboratory Animal Technology Co., Ltd.) to establish the DSS-induced IBD model.
Female C57BL/6 mice (6-8 weeks old) were purchased from Beijing Vital River Laboratory Animal Technology Co., Ltd. Upon arrival, the mice were housed in individually ventilated cages (IVC) under specific pathogen-free (SPF) conditions, with 2-6 mice per cage. They were provided with ad libitum access to food and water and maintained at a temperature of 20-26° C. (68-79° F.), relative humidity of 40-70%, and a 12-hour light/dark cycle (lights on from 08:00 to 20:00). After a 7-day acclimatization period, experiments were initiated.
Test compounds and ABX464 vehicle: 5% DMSO+10% Solutol HS-15+85% saline, stored at 4° C.
DSS solution: 2% (w/v) DSS in autoclaved drinking water, prepared fresh before use.
The mice were randomly allocated into eight groups according to body weight: normal control group (negative control), model group (DSS group), ABX464 treatment group, test compound groups (administered with Compounds 19, 43, 59, 84, and 89 of the present invention at 40 mg/kg, p.o., q.d.)
Following a 7-day acclimation period, the model group and compound treatment groups were administered 2% DSS aqueous solution ad libitum for 7 days starting from Day 0, followed by 3 days of normal water consumption. All groups received daily oral gavage of their respective vehicles or test compounds for 10 consecutive days beginning on the trial commencement date. During the experimental period, body weight changes in mice were monitored and recorded daily, the Disease Activity Index (DAI) was scored each day with the total score calculated on the final day, and on the last experimental day all animals were humanely euthanized followed by colon collection and length measurement.
The experimental data were expressed as mean±standard error of the mean (mean±S.E.M.). Statistical analysis was performed using GraphPad Prism or SPSS software with appropriate statistical methods. A value of P<0.05 was considered statistically significant.
For `FC(F)(F)Oc1ccc(Nc2ccc3cccc(Cl)c3n2)cc1` [ABX464, reference compound], the “reduction in total DAI scores compared to the model group” value (“reduction in total DAI scores” for short) was 5.72%.
For `Fc1cc(Nc2nc3c(F)cc(Cl)cc3n3ccnc23)ccc1C(F)(F)F` [Compound 59], the “reduction in total DAI scores” value was 40.90%.
With `FC(F)(F)Oc1ccc(Nc2nc3c(Cl)cccc3n3ccnc23)cc1Cl` [Compound 19] the “reduction in total DAI scores” value was 42.55%.
With `FC(F)(F)Oc1ccc(NC2=Nc3c(Br)cccc3N3CCN=C23)cc1Cl` [Compound 84] the “reduction in total DAI scores” value was 41.59%.

Same assay, conditions: 40 mg/kg p.o. q.d., model group 77.32%
With `Fc1cc(Nc2nc3c(F)cc(Cl)cc3n3ccnc23)ccc1C(F)(F)F` [Compound 59] the “colon length as % of normal control values” (“colon length as %” for short) was 100%.
With `FC(F)(F)Oc1ccc(Nc2nc3c(Cl)cccc3n3ccnc23)cc1Cl` [Compound 19] the “colon length as %” value was 96.27%.
With `FC(F)(F)Oc1ccc(NC2=Nc3c(Br)cccc3N3CCN=C23)cc1Cl` [Compound 84] the “colon length as %” value was 96.89%.
In the case of `FC(F)(F)c1ccc(NC2=Nc3c(Cl)cc(Cl)cc3N3CCN=C23)cc1` [Compound 89], the “colon length as %” value is reported as 99.07%.
For `Fc1cc(Nc2nc3c(F)cccc3n3ccnc23)ccc1OC(F)(F)F` [Compound 43], the “colon length as %” value was 99.69%.

Same assay, conditions: day 10, 40 mg/kg p.o. q.d., female C57BL/6 mice, 2% DSS
For `FC(F)(F)Oc1ccc(Nc2ccc3cccc(Cl)c3n2)cc1` [ABX464, reference compound], the “body weight loss percentage” value was 5.37%.
For `Fc1cc(Nc2nc3c(F)cc(Cl)cc3n3ccnc23)ccc1C(F)(F)F` [Compound 59], the “body weight gain percentage” value was 2.12%.
In the case of `FC(F)(F)Oc1ccc(Nc2nc3c(Cl)cccc3n3ccnc23)cc1Cl` [Compound 19], the “body weight gain percentage” value is reported as 0.16%.
In the case of `FC(F)(F)Oc1ccc(NC2=Nc3c(Br)cccc3N3CCN=C23)cc1Cl` [Compound 84], the “body weight gain percentage” value is reported as 0.38%.
In the case of `FC(F)(F)c1ccc(NC2=Nc3c(Cl)cc(Cl)cc3N3CCN=C23)cc1` [Compound 89], the “body weight loss percentage” value is reported as 1.85%.
With `Fc1cc(Nc2nc3c(F)cccc3n3ccnc23)ccc1OC(F)(F)F` [Compound 43] the “body weight loss percentage” value was 2.22%.

Same assay, conditions: final day, 40 mg/kg p.o. q.d., mean ± S.E.M., model group 14.50
In the case of `FC(F)(F)Oc1ccc(Nc2ccc3cccc(Cl)c3n2)cc1` [ABX464, reference compound], the “Total Disease Activity Index (DAI) Scores” value (“Total Disease Activity Index” below) is reported as 13.67.
For `Fc1cc(Nc2nc3c(F)cc(Cl)cc3n3ccnc23)ccc1C(F)(F)F` [Compound 59], the “Total Disease Activity Index” value was 8.57.
With `FC(F)(F)Oc1ccc(Nc2nc3c(Cl)cccc3n3ccnc23)cc1Cl` [Compound 19] the “Total Disease Activity Index” value was 8.33.
In the case of `FC(F)(F)Oc1ccc(NC2=Nc3c(Br)cccc3N3CCN=C23)cc1Cl` [Compound 84], the “Total Disease Activity Index” value is reported as 8.47.
In the case of `FC(F)(F)c1ccc(NC2=Nc3c(Cl)cc(Cl)cc3N3CCN=C23)cc1` [Compound 89], the “Total Disease Activity Index” value is reported as 10.33.
With `Fc1cc(Nc2nc3c(F)cccc3n3ccnc23)ccc1OC(F)(F)F` [Compound 43] the “Total Disease Activity Index” value was 10.03.

Same assay, conditions: final day, 40 mg/kg p.o. q.d., model group 14.5 points
In the case of `Fc1cc(Nc2nc3c(F)cc(Cl)cc3n3ccnc23)ccc1C(F)(F)F` [Compound 59], the “total DAI scores” value is reported as 8.57 points.
With `FC(F)(F)Oc1ccc(Nc2nc3c(Cl)cccc3n3ccnc23)cc1Cl` [Compound 19] the “total DAI scores” value was 8.33 points.
In the case of `FC(F)(F)Oc1ccc(NC2=Nc3c(Br)cccc3N3CCN=C23)cc1Cl` [Compound 84], the “total DAI scores” value is reported as 8.47 points.
For `FC(F)(F)c1ccc(NC2=Nc3c(Cl)cc(Cl)cc3N3CCN=C23)cc1` [Compound 89], the “total DAI scores” value was 10.33 points.
In the case of `Fc1cc(Nc2nc3c(F)cccc3n3ccnc23)ccc1OC(F)(F)F` [Compound 43], the “total DAI scores” value is reported as 10.03 points.

Same assay, conditions: further experiments, figures not given
In the case of `FC(F)(F)Oc1ccc(Nc2nc3cc(Cl)ccc3n3ccnc23)cc1` [Compound B7, 7-chloro-N-(4-(trifluoromethoxy)phenyl)imidazolo [1,2-a]quinoxalin-4-amine], the “preventive and therapeutic effects on DSS-induced IBD (body weight, DAI, colon length) relative to ABX464” value is reported as “outperformed the reference drug ABX464”.

Same assay, conditions: last experimental day, 40 mg/kg p.o. q.d., mean ± S.E.M., normal control 6.44, model group 4.98
For `FC(F)(F)Oc1ccc(Nc2ccc3cccc(Cl)c3n2)cc1` [ABX464, reference compound], the Colon length was 6.22 cm.
Work on `Fc1cc(Nc2nc3c(F)cc(Cl)cc3n3ccnc23)ccc1C(F)(F)F` [Compound 59] yielded a Colon length of 6.48 cm.
For `FC(F)(F)Oc1ccc(Nc2nc3c(Cl)cccc3n3ccnc23)cc1Cl` [Compound 19], the Colon length was 6.20 cm.
Compound `FC(F)(F)Oc1ccc(NC2=Nc3c(Br)cccc3N3CCN=C23)cc1Cl` [Compound 84] has a Colon length of 6.24 cm.
For `FC(F)(F)c1ccc(NC2=Nc3c(Cl)cc(Cl)cc3N3CCN=C23)cc1` [Compound 89], the Colon length was 6.38 cm.
For `Fc1cc(Nc2nc3c(F)cccc3n3ccnc23)ccc1OC(F)(F)F` [Compound 43], the Colon length was 6.42 cm.

Test system: not listed separately
Assay: In vivo pharmacokinetic evaluation in mice
Conditions: mouse; male ICR mice, po, 10 mg/kg, plasma
Experimental: The compound was administered orally (p.o.) at a dose of 10 mg/kg. The test formulation was prepared at a final concentration of 0.4 mg/mL in 5% DMSO+45% PEG400+50% aqueous solution or suspension. Male ICR mice (9 per group) were sampled at three discontinuous time points (n=3 mice/time point). Approximately 80 μL of blood was collected via orbital or cardiac puncture at 5 min, 15 min, 30 min, 1 h, 2 h, 4 h, 8 h, and 24 h post-dose. All whole blood samples were collected in EDTA K2-containing tubes. After centrifugation at 4° C. (4000 rpm, 10 min), plasma was collected and stored below −40° C. for subsequent analysis. Compound concentrations in plasma were determined by liquid chromatography-tandem mass spectrometry (LC-MS/MS), and pharmacokinetic parameters were derived from the plasma concentration-time curves.
`FC(F)(F)Oc1ccc(Nc2ccc3cccc(Cl)c3n2)cc1` [ABX464, reference compound] gave an AUC(0-t) of 420 ng·h/mL, a Cmax of 168 ng/mL and a Tmax of 0.5 h. For the same compound, the half-life was 64.8 min.
Work on `FC(F)(F)Oc1ccc(Nc2nc3c(Cl)cccc3n3ccnc23)cc1Cl` [Compound 19] yielded an AUC(0-t) of 1640 ng·h/mL, a Cmax of 358 ng/mL and a Tmax of 4 h. It also gave a half-life of 202 min.
`FC(F)(F)Oc1ccc(Nc2nc3cc(Cl)ccc3n3ccnc23)cc1` [Compound B7, 7-chloro-N-(4-(trifluoromethoxy)phenyl)imidazolo [1,2-a]quinoxalin-4-amine] gave an AUC(0-t) of 3240 ng·h/mL, a Cmax of 378 ng/mL and a Tmax of 2 h. For the same compound, the half-life was 183 min.
Work on `FC(F)(F)c1ccc(NC2=Nc3c(Cl)cc(Cl)cc3N3CCN=C23)cc1` [Compound 89] yielded an AUC(0-t) of 1860 ng·h/mL, a Cmax of 454 ng/mL and a Tmax of 2 h. It also gave a half-life of 208 min.
With `Fc1cc(Nc2nc3c(F)cccc3n3ccnc23)ccc1OC(F)(F)F` [Compound 43] the AUC(0-t) was 1680 ng·h/mL, the Cmax was 348 ng/mL and the Tmax was 2 h. It also gave a half-life of 232 min.

Test system: miR-124
Assay: Induction of miR-124 expression in PBMC cells (qPCR)
Type: cell-based
Conditions: Homo sapiens, 72 h, 0.1 μM compound, human PBMCs stimulated with PMA/ionomycin, miR-191 reference gene, read-out: miR-124 expression, Fold change vs DMSO
Summary of the method: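 Human PBMCs (3.0*10^6 cells/well) were stimulated with PMA 10 ng/mL plus ionomycin 200 ng/mL for 48 h, then given compound at 0.1 μM final for 72 h. miR-124 was measured by RT-qPCR against miR-191 as reference gene. Expression is relative to DMSO control.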
`FC(F)(F)Oc1ccc(Nc2ccc3cccc(Cl)c3n2)cc1` [ABX464, reference compound] gave a fold induction at 0.1 µM of 13.5.
Compound `Fc1cc(Nc2nc3c(F)cc(Cl)cc3n3ccnc23)ccc1C(F)(F)F` [Compound 59] has a fold induction at 0.1 µM of 20.5.
`FC(F)(F)Oc1ccc(Nc2nc3c(Cl)cccc3n3ccnc23)cc1Cl` [Compound 19] showed a fold induction at 0.1 µM of 21.2.
For `FC(F)(F)Oc1ccc(NC2=Nc3c(Br)cccc3N3CCN=C23)cc1Cl` [Compound 84], the fold induction at 0.1 µM was 15.5.
For `FC(F)(F)Oc1ccc(Nc2nc3cc(Cl)ccc3n3ccnc23)cc1` [Compound B7, 7-chloro-N-(4-(trifluoromethoxy)phenyl)imidazolo [1,2-a]quinoxalin-4-amine], the fold induction at 0.1 µM was 32.
`FC(F)(F)c1ccc(NC2=Nc3c(Cl)cc(Cl)cc3N3CCN=C23)cc1` [Compound 89] gave a fold induction at 0.1 µM of 24.3.
For `Fc1cc(Nc2nc3c(F)cccc3n3ccnc23)ccc1OC(F)(F)F` [Compound 43], the fold induction at 0.1 µM was 18.9.
